Experimental data reported in patent US9034303B2, “Neuroprotective and neuro-restorative iron chelators and monoamine oxidase inhibitors and uses thereof” (priority 2010, dated 2015).

Key:
[1] = target: MAO-B (Mus musculus (Mouse), UniProt Q8BW75); assay: In vivo MAO-B inhibition in mice after a single i.p. injection; settings: one hour later
Procedure: For the MAO-inhibition study, mice (6 mice in each group) were injected intraperitoneally (i.p.) with compound 3 at the dosage of 5 or 10 mg/kg; or with M30 at the dosage of 10 mg/kg. Control mice received saline (0.1 mL) i.p. One hour later the mice were killed by cervical dislocation, while striatum and small intestine were removed rapidly and frozen in liquid nitrogen for further analysis. FIGS. 3 and 4 show MAO-A/MAO-B in vivo activity of compound 3 compared to the activity of M30. FIG. 3 presents an MAO inhibition in striatum, and FIG. 4 presents an MAO inhibition in intestine. The percent inhibition was computed based on comparison to control animals.

[2] = system: HepG2 cells; assay: Cytotoxicity in presence and absence of exogenous iron, HepG2; assay type: cell-based, human
Procedure: The potential of compound 3 to be toxic in the presence of free iron was also tested. The iron complexation method was based on the method of Leanderson and Tagesson (Carcinogenesis, 17, 545-550, 1996) with some modifications. Iron (III) was prepared from ferric ammonium citrate (Sigma, F5879) at 80 mM in sterile distilled water. Compound 3 was prepared at a 200 mM concentration in DMSO. Before each experiment, the freshly prepared iron (III) solution was diluted to 0.4 mM in PBS II (PBS containing 0.90 mM Ca^2+ and 0.49 mM Mg^2+). Compound 3 stock solutions were diluted to 2, 0.2, and 0.02 mM with PBS II. Equal volumes of the 0.4 mM iron (III) solution and compound 3 solutions were added together to prepare iron/test article complex solutions containing 1, 0.1, and 0.01 mM compound 3 and 0.2 mM iron (III). The compound 3 DMSO stock solution was diluted in PBS II at 1, 0.1, or 0.01 mM and used as compound 3 control without iron. An equal volume of the 0.4 mM iron (III) solution was diluted in PBS II to prepare a control containing only iron.
The medium was removed from the plated cells (both cell lines) and replaced with fresh medium (90 μL). Iron/compound 3 complex or compound 3 in PBS II without iron was added to cells in triplicate (10 μL) to final compound 3 concentrations of 100, 10, and 1 μM and an iron (III) concentration of 20 μM. Wells containing no cells were used as the background control. PBS II was run as vehicle control. Iron only was run at a final concentration of 20 μM.
Cell viability was determined as described above and cytotoxicity was compared between treatments with and without iron complexation.

MAO-B, sequence (Q8BW75 whole entry): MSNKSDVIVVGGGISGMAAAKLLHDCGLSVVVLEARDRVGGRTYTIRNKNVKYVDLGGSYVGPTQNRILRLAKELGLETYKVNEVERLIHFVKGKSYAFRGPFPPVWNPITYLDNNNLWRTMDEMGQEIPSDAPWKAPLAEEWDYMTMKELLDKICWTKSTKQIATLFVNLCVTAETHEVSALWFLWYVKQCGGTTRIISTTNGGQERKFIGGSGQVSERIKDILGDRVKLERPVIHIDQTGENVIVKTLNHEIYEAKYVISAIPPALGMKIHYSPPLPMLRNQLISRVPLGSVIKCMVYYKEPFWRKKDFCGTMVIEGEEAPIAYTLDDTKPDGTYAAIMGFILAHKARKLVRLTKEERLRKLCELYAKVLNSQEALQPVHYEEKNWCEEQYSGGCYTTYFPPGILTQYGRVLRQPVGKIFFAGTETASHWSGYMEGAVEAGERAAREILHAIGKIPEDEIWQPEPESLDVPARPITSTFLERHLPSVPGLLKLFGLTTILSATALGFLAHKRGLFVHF

C#CCN(C)CCc1ccc(O)c2ncccc12 [Compound 3, 5-[2-(methyl-2-propyn-1-ylamino)ethyl]-8-quinolinol]
MAO-B inhibition in striatum ([1]; 5 or 10 mg/kg): inhibited in a dose responsive fashion
MAO-B inhibition in intestine ([1]; small intestine): Reduced inhibition in the intestinal tissue versus striatal tissue
HepG2 cell death (%) ([2]; with iron (20 μM), compound 1 μM): 4.8%
HepG2 cell death (%) ([2]; with iron (20 μM), compound 10 μM): 11.9%
HepG2 cell death (%) ([2]; with iron (20 μM), compound 100 μM): 99.5%
HepG2 cell death (%) ([2]; without iron, compound 1 μM): −0.1%
HepG2 cell death (%) ([2]; without iron, compound 10 μM): −0.7%
HepG2 cell death (%) ([2]; without iron, compound 100 μM): −3.6%
